Laboratory results taken from paper PMC7397249, “Properly Substituted Cyclic Bis-(2-bromobenzylidene) Compounds Behaved as Dual p300/CARM1 Inhibitors and Induced Apoptosis in Cancer Cells” (Molecules, 2020).

Key:
p300 = experiment: Western blot of acetylation marks (p300 inhibition) in NB4 cells; format: cell-based, human; conditions: 5 μM, 30 h
Method: (§1) Western blot analyses were carried out on NB4 and MCF-7 cells treated with a subset of compounds 4 (5 μM, 30 h), to confirm that the observed effects are due to modulation of p300, CARM1, and eventually EZH2 activities. Suberoylanilide hydroxamic acid (SAHA), a FDA-approved HDAC inhibitor [28], and GSK-126 [29], a well-known EZH2 inhibitor, were added as internal controls. In NB4 cells, the levels of acetyl-H3 (acH3) and acetyl-H4 (acH4) as well as those of acetyl-H3K9/14 (AcH3K9/14, see Supplementary material) and of the non-histone substrate acetyl-α-tubulin (Ac-Tubulin) were detected as an index of p300 inhibition (Figure 4). In the same cell line, the levels of H3K27me3, histone mark of the EZH2 catalytic activity (Figure 4), as well as the level of the EZH2 expression (see Supplementary material) have been determined. Last, the amount of H3R17me2, the functional read-out of CARM1 inhibition, was determined (Figure 4).
(§2) The procedures were performed as described in [30, 31]. Primary antibodies used were: Ac-H3 (Millipore, Milan, Italy); Ac-H4 (Millipore, Milan, Italy); Ac-H3K9-14 (Diagenode, Ougrée, Belgium); Ac-α-tubulin (Sigma-Aldrich), H3K27me3 (Diagenode); H3R17me2 (Diagenode); EZH2 (Abcam, Cambridge, UK). […]

EZH2 = experiment: Western blot of H3K27me3 (EZH2 catalytic activity) in NB4 cells; format: cell-based, human; conditions: 5 μM, 30 h
Method: as §1, §2

[1] = Cell viability in non-cancer mesenchymal progenitor cells (differential toxicity); format: cell-based; conditions: human, MePR2B cells, control 100%, read-out: percentage of cell viability
Method: After treatment at 5 μM for 30 h, 4l and 4m reduced the percentage of cell viability to 61.2 ± 0.8 and 85.5 ± 3.7, respectively, in comparison with the control (100%).
For colorimetric exclusion, the cells (2 × 10^5 cells/mL) were plated in multiwells in triplicate. After stimulations at different times and concentrations, cells were diluted in the ratio 1:1 in Trypan Blue (Sigma) and counted with an optical microscope. For cell cycle analyses, cells were plated (2 × 10^5 cells/mL) and were harvested, centrifuged at 1200 rpm for 5 min and resuspended in 500 μL of a hypotonic solution containing 1× PBS, Sodium Citrate 0.1%, 0.1% NP-40, RNAase A and […] Propidium Iodide (PI). After 30 min at room temperature (RT) in the dark, samples were acquired by FACS-Calibur (BD Bioscences, San Jose, CA, USA) using CellQuest software (BD Biosciences). The percentage in different phases of the cell cycle was determined by ModFit LT V3 software (Verity). All experiments were performed in triplicate. Cell death was measured as percentage of cells in sub-G1 phase as in [30].

CARM1 = experiment: Western blot of H3R17me2 (CARM1) in MCF-7 cells; format: cell-based, human; conditions: 5 μM, 30 h
Method: In MCF-7 cells, the levels of acetyl-H3, acetyl-H4, H3K27me3, and H3R17me2 were detected by western blot analyses as functional tests for p300 (acH3 and acH4), EZH2 (H3K27me3) and CARM1 (H3R17me2) inhibition in cells, respectively (Figure 5).
The procedures were performed as described in [30, 31]. Primary antibodies used were: Ac-H3 (Millipore, Milan, Italy); Ac-H4 (Millipore, Milan, Italy); Ac-H3K9-14 (Diagenode, Ougrée, Belgium); Ac-α-tubulin (Sigma-Aldrich), H3K27me3 (Diagenode); H3R17me2 (Diagenode); EZH2 (Abcam, Cambridge, UK). H3 (Sigma-Aldrich), H4 (Abcam), GAPDH (Sigma) and ERKs (Santa Cruz, Biotechnology, TX, USA) were used to normalize the total protein extracts (see also Supplementary Material).

| Compound | levels of acetyl-H3 (p300) | levels of H3K27me3 (EZH2) | viability at 30 h, 5 µM [1] [%] | levels of H3R17me2 (CARM1) |
| --- | --- | --- | --- | --- |
| O=C1/C(=C/c2ccccc2Br)CN(CCCc2ccccc2)C/C1=C\c1ccccc1Br [Compound 4g, 3,5-Bis((E)-2-bromobenzylidene)-1-(3-phenylpropyl)piperidin-4-one] | less effective | – | – | – |
| O=C1/C(=C/c2ccccc2Br)CN(CC(=O)c2ccccc2)C/C1=C\c1ccccc1Br [Compound 4h, 3,5-Bis((E)-2-bromobenzylidene)-1-(2-oxo-2-phenylethyl)piperidin-4-one] | – | reduction of the H3K27me3 levels | – | – |
| O=C1/C(=C/c2ccccc2Br)CN(C(=O)CCc2ccccc2)C/C1=C\c1ccccc1Br [Compound 4m, 3,5-Bis((E)-2-bromobenzylidene)-1-(3-phenylpropanoyl)piperidin-4-one] | – | reduction of the H3K27me3 levels | 85.5 ± 3.7 | most effective |
| O=C1/C(=C/c2ccccc2Br)CN(CCc2ccccc2)C/C1=C\c1ccccc1Br [Compound 4f, 3,5-Bis((E)-2-bromobenzylidene)-1-phenethylpiperidin-4-one] | less effective | – | – | – |
| O=C1/C(=C/c2ccccc2Br)CN(C(=O)Cc2ccccc2)C/C1=C\c1ccccc1Br [Compound 4l, 3,5-Bis((E)-2-bromobenzylidene)-1-(2-phenylacetyl)piperidin-4-one] | – | – | 61.2 ± 0.8 | – |
